{
  "source": "patent US20170245500A1",
  "about": "(priority 2014, published 2017)",
  "origin": "cited, not measured here",
  "conditions": "some conditions, e.g. high temperature or higher soil pH",
  "data": [
    {"compound": "CCOP(=O)(SC(C)CC)N1CCSC1=O", "note": "(stereo not shown) [fosthiazate]", "values": [
      {"measurement": "time in which the pesticide can be degraded in soil", "result": "under ten"}
    ]}
  ]
}
